These results are taken from patent US20090163698A1, “Method for Preparing Antibody Conjugates” (priority 2007, published 2009).

The subject of one assay is murine αVβ3/5 integrin. The note with it: cited from earlier work.
The test system of the next assay is A375.S2 cells. Description: Binding and internalization study at 37° C., confocal microscopy. In kind it is cell-based, human. As to conditions: 37° C. for 10 min, washed, incubated 1 hour at 37° C. How it is done: A375.S2 cells were harvested by scraping and then resuspended to obtain individualized cells and rejuvenated for 1 hour, at 37° C. About 1 million cells of each tumor type were counted and distributed into individual centrifugation tubes. The tubes were spun to obtain a cell pellet.
For binding and internalization, the cells were treated with the targeted liposome formulation at 37° C. for 10 min with mild shaking (140 rpm). Cells were treated with the liposome formulations containing either a doxorubicin payload or a fluorescent marker (Dextran Alexa Fluor 488). Treatment was terminated by adding 1 mL of washing media (serum free), vortexing briefly, and centrifuging to recover a cell pellet The cells in the pellet were resuspend in washing media, vigorously shaken for 10 minutes at 37° C. and then centrifuged again (440 rpm). The cell pellet was left in 100 μL of media, an aliquot of 8 μL was taken and placed on a glass slide for observation under a confocal microscope.
Binding and internalization of the targeted liposomes to A375.S2 cells was evaluated after various incubation times of the cells and the liposome formulation.

Sequence of murine αVβ3/5 integrin (P43406 31-885 limits assumed): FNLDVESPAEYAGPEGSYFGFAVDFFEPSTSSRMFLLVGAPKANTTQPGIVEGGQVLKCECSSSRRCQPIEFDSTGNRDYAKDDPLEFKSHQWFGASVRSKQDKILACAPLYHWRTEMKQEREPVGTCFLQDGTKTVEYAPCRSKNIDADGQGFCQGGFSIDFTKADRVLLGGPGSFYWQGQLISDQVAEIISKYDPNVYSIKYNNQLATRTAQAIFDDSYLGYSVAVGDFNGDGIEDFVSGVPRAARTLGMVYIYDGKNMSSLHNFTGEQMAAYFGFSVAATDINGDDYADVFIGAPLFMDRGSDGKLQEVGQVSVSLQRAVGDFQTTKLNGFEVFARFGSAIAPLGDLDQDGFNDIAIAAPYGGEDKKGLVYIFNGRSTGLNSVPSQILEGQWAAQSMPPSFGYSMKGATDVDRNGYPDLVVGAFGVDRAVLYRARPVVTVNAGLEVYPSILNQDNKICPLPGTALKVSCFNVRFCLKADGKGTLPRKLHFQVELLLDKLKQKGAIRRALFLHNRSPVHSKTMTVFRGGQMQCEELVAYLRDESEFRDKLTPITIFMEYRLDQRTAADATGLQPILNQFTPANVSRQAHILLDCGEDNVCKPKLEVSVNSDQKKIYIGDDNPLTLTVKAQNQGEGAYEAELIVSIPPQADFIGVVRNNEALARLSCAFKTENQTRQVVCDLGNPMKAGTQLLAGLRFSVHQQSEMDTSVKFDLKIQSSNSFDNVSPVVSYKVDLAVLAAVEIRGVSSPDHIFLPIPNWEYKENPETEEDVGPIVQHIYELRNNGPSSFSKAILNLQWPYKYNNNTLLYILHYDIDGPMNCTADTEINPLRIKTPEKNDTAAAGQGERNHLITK
Sequence of murine αVβ3/5 integrin (P43406 887-1044 limits assumed): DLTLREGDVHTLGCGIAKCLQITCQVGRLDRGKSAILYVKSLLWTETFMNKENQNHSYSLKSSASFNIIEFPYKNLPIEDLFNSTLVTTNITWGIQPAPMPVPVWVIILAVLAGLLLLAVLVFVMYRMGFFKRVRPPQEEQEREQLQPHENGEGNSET

Consider “CNTO95: full-length human anti-alpha-V antibody of the IgG1k type, SEQ ID NO: 1 and SEQ ID NO: 2”, for which the “Binding to murine αVβ3/5 integrin” value with murine αVβ3/5 integrin is given as “does not bind”. Consider `COc1cccc2c1C(=O)c1c(O)c3c(c(O)c1C2=O)C[C@@](O)(C(=O)CO)C[C@@H]3O[C@H]1C[C@H](N)[C@H](O)[C@H](C)O1` [free dox, doxorubicin], for which, in the assay on A375.S2 cells, the “Binding and internalization (confocal microscopy)” value was “drug internalization is evident”.
